In one assay the target is T1, hL-CPT1 (Homo sapiens, UniProt P50416).
T1 construct: made in house; host or cells: Pichia pastoris strain X-33
T1 sequence (P50416 1-773): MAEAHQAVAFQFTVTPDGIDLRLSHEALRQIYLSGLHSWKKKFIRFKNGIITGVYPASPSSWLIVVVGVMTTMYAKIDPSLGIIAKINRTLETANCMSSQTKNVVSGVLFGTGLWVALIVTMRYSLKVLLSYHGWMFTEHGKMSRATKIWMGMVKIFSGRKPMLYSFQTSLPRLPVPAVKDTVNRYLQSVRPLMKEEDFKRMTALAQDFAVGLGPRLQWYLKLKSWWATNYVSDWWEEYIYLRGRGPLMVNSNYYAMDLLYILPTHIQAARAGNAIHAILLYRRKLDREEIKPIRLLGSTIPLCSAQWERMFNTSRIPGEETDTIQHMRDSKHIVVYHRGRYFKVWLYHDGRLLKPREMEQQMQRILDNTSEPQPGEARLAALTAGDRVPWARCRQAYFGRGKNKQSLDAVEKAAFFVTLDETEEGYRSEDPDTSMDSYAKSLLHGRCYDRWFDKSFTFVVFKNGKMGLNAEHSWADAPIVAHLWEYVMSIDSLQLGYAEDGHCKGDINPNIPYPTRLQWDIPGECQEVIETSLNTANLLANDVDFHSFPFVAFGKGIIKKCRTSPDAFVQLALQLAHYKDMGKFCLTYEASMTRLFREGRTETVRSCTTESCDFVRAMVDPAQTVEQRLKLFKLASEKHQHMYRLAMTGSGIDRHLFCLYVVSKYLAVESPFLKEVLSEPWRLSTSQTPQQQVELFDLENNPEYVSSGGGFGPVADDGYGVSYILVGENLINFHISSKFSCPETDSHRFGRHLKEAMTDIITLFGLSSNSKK
The assay is described as follows: liver CPT1 inhibition, spectrophotometric DTNB (Ellman's reagent) assay. Format: biochemical. The following applies: human liver CPT1 expressed in P. pastoris, cell extract; carnitine 500 μM, palmitoyl-CoA 80 μM, DTNB 300 μM. On the procedure: (§1) The following tests were carried out in order to determine the activity of the compounds of the present invention. Background information on the performed assays can be found in: Jackson et al., 1999, Biochem. J. 341, 483-489 and Jackson et al., 2000, J. Biol. Chem. 275, 19560-19566.
(§2) Human and rat CPT2- and liver CPT1 cDNAs, and human muscle CPT1 cDNA were subcloned in pGAPZB or pGAPZA, respectively. These plasmids were used to transform P. pastoris strain X-33 via electroporation after the preparation of electrocompetent cells. High copy number clones were selected where necessary using 0.5 or 1 mg/ml Zeocin. Cultures for activity measurements were induced for 16 h in YPD medium (1% yeast extract, 2% peptone, 2% glucose). Crude cell extracts were prepared by disrupting the cells with glass beads or French Press, depending on fermenter sizes. After centrifugation, the cell-free extracts were resuspended in cell breaking buffer (50 mM Tris, pH7.4, 100 mM KCl, 1 mM EDTA) in the presence of a protease inhibitor cocktail, before aliquoting and freezing at −20° C.
(§3) CPT activity was measured using a spectrophotometric assay using 5,5′-dithio-bis-(2-nitrobenzoic acid) (DTNB) also called Ellman's reagent. The HS-CoA released on the formation of acylcarnitine from carnitine (500 μM) and palmitoyl-CoA (80 μM) reduced DTNB (300 μM) forming 5-mercapto-2-nitrobenzoic acid which absorbed at 410 nm with a molar extinction coefficient of 13600 M^−1cm^−1. The assay buffer contained 120 mM KCl, 25 mM Tris, pH 7.4, 1 mM EDTA. This assay was used for the identification of CPT inhibitors, particularly/preferentially CPT2-selective inhibitors, versus the liver and muscle CPT1 isoforms.
In general terms: DTNB colorimetry detects thiols as they appear.

A further assay has as its target T2, hCPT2 (Homo sapiens, UniProt P23786).
T2 construct: made in house; host or cells: Pichia pastoris strain X-33
T2 sequence (P23786 26-658): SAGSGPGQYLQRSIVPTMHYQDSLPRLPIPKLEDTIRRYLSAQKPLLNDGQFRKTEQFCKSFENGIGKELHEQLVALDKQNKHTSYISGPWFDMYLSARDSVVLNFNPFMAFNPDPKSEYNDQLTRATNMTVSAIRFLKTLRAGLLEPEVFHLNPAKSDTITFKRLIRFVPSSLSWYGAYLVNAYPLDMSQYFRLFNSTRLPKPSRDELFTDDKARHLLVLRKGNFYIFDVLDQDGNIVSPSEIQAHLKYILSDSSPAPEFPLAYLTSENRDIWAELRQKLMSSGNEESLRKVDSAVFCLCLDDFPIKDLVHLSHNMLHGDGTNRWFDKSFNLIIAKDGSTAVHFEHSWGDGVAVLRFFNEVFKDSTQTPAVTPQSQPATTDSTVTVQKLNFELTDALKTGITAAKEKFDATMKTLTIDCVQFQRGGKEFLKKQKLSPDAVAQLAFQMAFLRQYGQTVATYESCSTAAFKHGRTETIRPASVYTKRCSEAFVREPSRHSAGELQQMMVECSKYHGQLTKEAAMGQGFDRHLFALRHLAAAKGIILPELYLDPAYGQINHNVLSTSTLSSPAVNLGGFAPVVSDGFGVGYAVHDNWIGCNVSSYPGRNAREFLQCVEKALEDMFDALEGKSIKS
As to the kind of experiment: CPT2 inhibition, spectrophotometric DTNB (Ellman's reagent) assay. The settings on record: human CPT2 expressed in P. pastoris, cell extract; carnitine 500 μM, palmitoyl-CoA 80 μM, DTNB 300 μM. Format: biochemical. How it is done:
as §1, §2, §3

The pIC50 is the negative decadic logarithm of the IC50, by convention in mol/L. A lower pIC50 goes with a high IC50.

pIC50: −log10 of the molar value.

For the molecule `CN(C)C[C@@H](CC(=O)O)NC(=O)CCCCCCCOCc1ccc(F)c(F)c1` [Example 1, (R)-3-[8-(3,4-Difluoro-benzyloxy)-octanoylamino]-4-dimethylamino-butyric acid], the pIC50 at hL-CPT1 is 5.11; against hCPT2, 6.04. `CN(C)C[C@@H](CC(=O)O)NC(=O)CCCCCCCOCc1cc(F)ccc1F` [Example 2, (R)-3-[8-(2,5-Difluoro-benzyloxy)-octanoylamino]-4-dimethylamino-butyric acid]: the pIC50 was below 5.00 against hL-CPT1 and 5.46 against hCPT2. Consider `CN(C)C[C@@H](CC(=O)O)NC(=O)CCCCCCCOCc1ccc(C(F)(F)F)cc1` [Example 6, (R)-4-Dimethylamino-3-[8-(4-trifluoromethyl-benzyloxy)-octanoylamino]-butyric acid], for which the values for the pIC50 against hL-CPT1 and against hCPT2 were below 5.00 and 6.72, respectively. Take `CN(C)C[C@@H](CC(=O)O)NC(=O)CCCCCCCOCc1ccc(C(F)(F)F)c(F)c1` [Example 7, (R)-4-Dimethylamino-3-[8-(3-fluoro-4-trifluoromethyl-benzyloxy)-octanoylamino]-butyric acid]: the figures for the negative-log IC50 (pIC50) on hL-CPT1 and against hCPT2 were 5.22 and 6.23, respectively.

For the molecule `COc1ccc(COCCCCCCCC(=O)N[C@H](CC(=O)O)CN(C)C)cc1` [Example 8, (R)-4-Dimethylamino-3-[8-(4-methoxy-benzyloxy)-octanoylamino]-butyric acid], the pIC50 was below 5.00 against hL-CPT1 and 6.82 against hCPT2.

With `CN(C)C[C@@H](CC(=O)O)NC(=O)CCCCCCCOCc1ccc(-c2ccccc2)cc1` [Example 9, (R)-3-[8-(Biphenyl-4-ylmethoxy)-octanoylamino]-4-dimethylamino-butyric acid], the results for the negative-log IC50 (pIC50) against hL-CPT1 and against hCPT2 were 5.24 and 8.70, respectively. The corresponding values for `CN(C)C[C@@H](CC(=O)O)NC(=O)CCCCCCCOCc1ccc(C(F)(F)F)cc1F` [Example 10, (R)-4-Dimethylamino-3-[8-(2-fluoro-4-trifluoromethyl-benzyloxy)-octanoylamino]-butyric acid] are below 5.00 and 6.16.

On to `COc1c(F)c(F)c(COCCCCCCCC(=O)N[C@H](CC(=O)O)CN(C)C)c(F)c1F` [Example 11, (R)-4-Dimethylamino-3-[8-(2,3,5,6-tetrafluoro-4-methoxy-benzyloxy)-octanoylamino]-butyric acid], for which the negative-log IC50 (pIC50) is below 5.00 at hL-CPT1 and 5.53 against hCPT2.

Take `CN(C)C[C@@H](CC(=O)O)NC(=O)CCCCCCCOCc1cccc2ccccc12` [Example 12, (R)-4-Dimethylamino-3-[8-(naphthalen-1-ylmethoxy)-octanoylamino]-butyric acid]: the negative logarithm of the IC50 (pIC50) was below 5.00 against hL-CPT1 and 6.52 against hCPT2.

`CN(C)C[C@@H](CC(=O)O)NC(=O)CCCCCCCOCc1ccccc1F` [Example 13, (R)-4-Dimethylamino-3-[8-(2-fluoro-benzyloxy)-octanoylamino]-butyric acid]: the negative-log IC50 (pIC50) on hL-CPT1 was below 5.00; on hCPT2 it was 5.58. Turning to `CN(C)C[C@@H](CC(=O)O)NC(=O)CCCCCCCOCc1cccc(F)c1` [Example 14, (R)-4-Dimethylamino-3-[8-(3-fluoro-benzyloxy)-octanoylamino]-butyric acid], the figures for the pIC50 at hL-CPT1 and on hCPT2 were below 5.00 and 6.11, respectively. In the case of `CN(C)C[C@@H](CC(=O)O)NC(=O)CCCCCCCOCc1ccc(F)cc1` [Example 15, (R)-4-Dimethylamino-3-[8-(4-fluoro-benzyloxy)-octanoylamino]-butyric acid], the figures for the pIC50 against hL-CPT1 and at hCPT2 were 5.18 and 5.69, respectively.

Take `CN(C)C[C@@H](CC(=O)O)NC(=O)CCCCCCCOCc1ccccc1` [Example 17, (R)-3-(8-Benzyloxy-octanoylamino)-4-dimethylamino-butyric acid]: the negative logarithm of the IC50 (pIC50) against hL-CPT1 was below 5.00; at hCPT2, 5.81. For `CN(C)C[C@@H](CC(=O)O)NC(=O)CCCCCCCCOc1ccccc1F` [Example 18, (R)-4-Dimethylamino-3-[9-(2-fluoro-phenoxy)-nonanoylamino]-butyric acid], the pIC50 against hL-CPT1 was below 5.00; on hCPT2, 6.34. For the molecule `CN(C)C[C@@H](CC(=O)O)NC(=O)CCCCCCCCOc1cccc(F)c1` [Example 19, (R)-4-Dimethylamino-3-[9-(3-fluoro-phenoxy)-nonanoylamino]-butyric acid], the values for the pIC50 on hL-CPT1 and at hCPT2 were 5.63 and 7.80, respectively. With `CN(C)C[C@@H](CC(=O)O)NC(=O)CCCCCCCCOc1ccc(F)cc1` [Example 20, (R)-4-Dimethylamino-3-[9-(4-fluoro-phenoxy)-nonanoylamino]-butyric acid], the pIC50 on hL-CPT1 was 6.00; against hCPT2 it was 7.68. Regarding `CN(C)C[C@@H](CC(=O)O)NC(=O)CCCCCCCCOc1cccc(F)c1F` [Example 21, (R)-3-[9-(2,3-Difluoro-phenoxy)-nonanoylamino]-4-dimethylamino-butyric acid], the negative logarithm of the IC50 (pIC50) against hL-CPT1 is 5.18; against hCPT2, 6.58. Consider `CN(C)C[C@@H](CC(=O)O)NC(=O)CCCCCCCCOc1ccc(F)cc1F` [Example 22, (R)-3-[9-(2,4-Difluoro-phenoxy)-nonanoylamino]-4-dimethylamino-butyric acid], for which the values for the negative logarithm of the IC50 (pIC50) on hL-CPT1 and against hCPT2 were 5.06 and 6.57, respectively. As for `CN(C)C[C@@H](CC(=O)O)NC(=O)CCCCCCCCOc1ccc(F)c(F)c1` [Example 23, (R)-3-[9-(3,4-Difluoro-phenoxy)-nonanoylamino]-4-dimethylamino-butyric acid], the negative logarithm of the IC50 (pIC50) is 5.78 against hL-CPT1 and 7.15 on hCPT2.

With `CN(C)C[C@@H](CC(=O)O)NC(=O)CCCCCCCCCCOc1ccccc1` [Example 30, (R)-4-Dimethylamino-3-(11-phenoxy-undecanoylamino)-butyric acid], at hCPT2, the pIC50 was 7.44. `CN(C)C[C@@H](CC(=O)O)NC(=O)CCCCCCCCOCCc1ccccc1` [Example 54, (R)-4-Dimethylamino-3-(9-phenethyloxy-nonanoylamino)-butyric acid]: the negative logarithm of the IC50 (pIC50) against hCPT2 was 7.09. Still for that read-out and setting: next, `CN(C)C[C@@H](CC(=O)O)NC(=O)CCCCCCCOCCCc1ccccc1` [Example 55, (R)-4-Dimethylamino-3-[8-(3-phenyl-propoxy)-octanoylamino]-butyric acid]: 7.19; `CN(C)C[C@@H](CC(=O)O)NC(=O)CCCCCCCOCCOc1ccccc1` [Example 56, (R)-4-Dimethylamino-3-[8-(2-phenoxy-ethoxy)-octanoylamino]-butyric acid]: 7.00; “(R)-3-{3-[6-(2,3-Difluoro-benzyloxy)-hexyl]-ureido}-4-dimethylamino-butyric acid [Example 62]”: 5.84.

For the origin of these results see patent US8344027B2, “4-dimethylaminobutyric acid derivatives” (Hoffmann-La Roche Inc., priority 2008, dated 2013).
